The values that follow are results of earlier work, collected in patent US20110008431A1, “THERAPEUTIC TABLET FOR POSTHERPETIC NEURALGIA AND METHOD OF TREATING POSTHERPETIC NEURALGIA” (TOYO BOSEKI KABUSHIKI KAISHA, priority 2007, published 2011).

The data set concerns patient with neuropathic pain. As to conditions: devazepide in combination with an opioid analgesic agent such as morphine, Patent Document 1.

Regarding `CN1C(=O)[C@@H](NC(=O)c2cc3ccccc3[nH]2)N=C(c2ccccc2)c2ccccc21` [devazepide], the “subjects who attained pain relief” value is 10 of 41.
